The text below walks through data of ChEMBL document CHEMBL1131433, “The bioactive conformation of aminoalkylindoles at the cannabinoid CB1 and CB2 receptors: insights gained from (E)- and (Z)-naphthylidene indenes” (J Med Chem, 1998).

The species named for experiment [1] is Cavia porcellus. Nature of the experiment: Compound was evaluated for inhibition of electrically evoked contractions of the myenteric plexus-longitudinal muscle of the Guinea pig small intestine. Type of experiment: functional. Particulars: Muscle tissue.
Experiment [2] is filed under the species Cavia porcellus. Nature of the experiment: Compound was evaluated for maximum inhibition of electrically evoked contractions of the myenteric plexus-longitudinal muscle of the Guinea pig small intestine. It is filed as functional. Conditions: Muscle tissue.

Take `CC1=C(CCN2CCOCC2)c2ccccc2C1=Cc1cccc2ccccc12` [listing 1 of 2 here]: a half-maximal effect in the experiment listed under Cavia porcellus [1] (EC50) was put at 52.9 nM.
On the same count and under the same terms, the result for `C1=C(CCN2CCOCC2)c2ccccc2/C1=C/c1cccc2ccccc12` reads 6.57 nM.
Still for that read-out and setting: in the case of `C1=C(CCN2CCOCC2)c2ccccc2/C1=C\c1cccc2ccccc12` it was 283 nM.
On the same count and under the same terms, in the case of `CC1=C(CCN2CCOCC2)c2ccccc2C1=Cc1cccc2ccccc12` [listing 2 of 2 here] it was more than 3160 nM.
In turn, `Cc1c(C(=O)c2cccc3ccccc23)c2cccc3c2n1[C@H](CN1CCOCC1)CO3` [WIN-552122] came in with an Emax in the experiment listed under Cavia porcellus [2] of 61.9%. In the experiment filed under Cavia porcellus [1], the EC50 is 4.92 nM.

As usually defined, the EC50 is the concentration at which the effect is half-maximal. High values mean a less potent agent, low ones a more potent agent. The Emax is the size of the effect at its maximum, as opposed to the concentration needed.
